# Laboratory results taken from patent publication US20080009418A1, “Selective Inhibitors” (Alchemia LTD., priority 2004, published 2008).
# Legend:
# [1] = target: T1, Human neuropeptide Y (NPY-Y1) (Homo sapiens, UniProt P25929); test: Radioligand binding, human neuropeptide Y NPY-Y1 membranes, FlashPlate, [125I]-PYY; details: compound at 10 μM
# T1 construct: purchased Perkin Elmer Biosignal
# T1 sequence (P25929 1-384): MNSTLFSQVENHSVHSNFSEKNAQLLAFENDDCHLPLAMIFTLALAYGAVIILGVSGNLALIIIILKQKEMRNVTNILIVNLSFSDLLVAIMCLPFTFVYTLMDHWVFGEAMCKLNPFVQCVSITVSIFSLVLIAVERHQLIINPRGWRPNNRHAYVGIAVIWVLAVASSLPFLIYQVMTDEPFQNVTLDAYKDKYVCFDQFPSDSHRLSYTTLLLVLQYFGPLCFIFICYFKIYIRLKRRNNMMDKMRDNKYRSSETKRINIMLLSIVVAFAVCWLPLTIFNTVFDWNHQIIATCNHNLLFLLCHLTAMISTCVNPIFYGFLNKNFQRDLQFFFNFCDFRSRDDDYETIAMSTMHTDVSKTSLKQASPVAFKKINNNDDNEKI
# Outline: (§1)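 Cloned human receptor membranes were coated onto FlashPlate wells and incubated with radioligand and compound (added from a 0.5 mM DMSO daughter plate) for 1 hour at room temperature in the dark. Scintillation counting gave percent inhibition, with DMSO defining total and reference ligand defining non-specific binding.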
# Human δ-opioid (DOP) = target: T2, Human δ-opioid (DOP) (Homo sapiens, UniProt P41143); test: Radioligand binding, human δ-opioid (DOP) membranes, FlashPlate, [3H]-Bremazocine; details: compound at 10 μM; for A1 radioligand binding inhibition: human δ-opioid (DOP) membranes
# T2 construct: purchased Perkin Elmer Biosignal
# Outline: as §1
# Human Melanocortin (MC3) = target: T3, Human Melanocortin (MC3) (Homo sapiens, UniProt P41968); test: Radioligand binding, human melanocortin MC3 membranes, FlashPlate, [125I]-NDP-αMSH; details: compound at 10 μM; for A3 radioligand binding inhibition: human melanocortin MC3 membranes
# T3 construct: purchased Perkin Elmer Biosignal
# Outline: as §1
# Human neurokinin (NK1) = target: T4, Human neurokinin (NK1) (Homo sapiens, UniProt P25103); test: Radioligand binding, human neurokinin NK1 membranes, filtration, [125I]-Substance P; details: compound at 10 μM; for A8 radioligand binding inhibition: human neurokinin NK1 membranes
# T4 construct: purchased Perkin Elmer Biosignal
# Outline: (§2)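 Filtration binding on cloned human receptor membranes (1 Unit/well), [125I]-Substance P for NK1 and [3H]-Diprenorphine for KOP, 1 h at room temperature. Filters PEI-presoaked, washed with cold 50 mM Tris-HCl pH 7.4, counted by scintillation; percent inhibition calculated, reference ligand defining non-specific binding.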
# Human Melanocortin (MC4) = target: T5, Human Melanocortin (MC4) (Homo sapiens, UniProt P32245); test: Radioligand binding, human melanocortin MC4 membranes, FlashPlate, [125I]-NDP-αMSH; details: compound at 10 μM; for A4 radioligand binding inhibition: human melanocortin MC4 membranes
# T5 construct: purchased Perkin Elmer Biosignal
# Outline: as §1
# Human μ-opioid (MOP) = target: T6, Human μ-opioid (MOP) (Homo sapiens, UniProt P35372); test: Radioligand binding, human μ-opioid (MOP) membranes, FlashPlate, [3H]-Naloxone; details: compound at 10 μM; for A7 radioligand binding inhibition: human μ-opioid (MOP) membranes
# T6 construct: purchased Perkin Elmer Biosignal
# Outline: as §1
# Mouse urotensin (mUR2) = target: T7, Mouse urotensin (mUR2) (Mus musculus, UniProt Q8VIH9); test: Radioligand binding, mouse urotensin mUR2 membranes, FlashPlate, [125I]-Urotensin II; details: compound at 10 μM; for A11 radioligand binding inhibition: mouse urotensin mUR2 membranes
# T7 construct: purchased Perkin Elmer Biosignal
# T7 sequence (Q8VIH9 1-385): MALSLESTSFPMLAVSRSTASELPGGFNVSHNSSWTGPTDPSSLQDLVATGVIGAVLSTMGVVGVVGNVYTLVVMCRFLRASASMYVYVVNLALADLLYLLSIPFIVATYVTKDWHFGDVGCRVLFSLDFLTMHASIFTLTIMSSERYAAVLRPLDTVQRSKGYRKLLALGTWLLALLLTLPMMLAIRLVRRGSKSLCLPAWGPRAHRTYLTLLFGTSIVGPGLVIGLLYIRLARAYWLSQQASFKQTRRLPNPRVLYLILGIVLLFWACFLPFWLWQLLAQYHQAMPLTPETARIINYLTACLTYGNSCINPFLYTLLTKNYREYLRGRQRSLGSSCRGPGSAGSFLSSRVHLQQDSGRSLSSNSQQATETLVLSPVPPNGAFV
# Outline: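 Cloned mouse urotensin (mUR2) receptor membranes from Perkin Elmer Biosignal were immobilized in FlashPlate microplates using a proprietary coating. Each well got 19.5 μl buffer, then 0.5 μl of DMSO, reference ligand, or compound. Adding 5 μl of [125I]-Urotensin II, diluted to 5× final concentration in binding buffer, started binding. Plates were sealed with TopSeal-A and incubated 1 hour at room temperature in the dark. Wells were counted for 30 seconds each on a TopCount after a 60-second delay, and percentage inhibition was calculated.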
# Human melanocortin (MC5) = target: T8, Human melanocortin (MC5) (Homo sapiens, UniProt P33032); test: Radioligand binding, human melanocortin MC5 membranes, FlashPlate, [125I]-NDP-αMSH; details: compound at 10 μM; for A5 radioligand binding inhibition: human melanocortin MC5 membranes
# T8 construct: purchased Perkin Elmer Biosignal
# Outline: as §1
# [2] = target: T9, Human melanin-concentrating hormone (MCH1) (Homo sapiens, UniProt Q99705); test: Radioligand binding, human melanin-concentrating hormone MCH1 membranes, FlashPlate, [125I]-S36057; details: compound at 10 μM; for A6 radioligand binding inhibition: human MCH1 membranes
# T9 construct: purchased Perkin Elmer Biosignal
# Outline: as §1
# Human opioid (ORL1) = target: T10, Human opioid (ORL1) (Homo sapiens, UniProt P41146); test: Radioligand binding, human opioid ORL1 membranes, FlashPlate, [125I]-Nociceptin; details: compound at 10 μM
# T10 construct: purchased Perkin Elmer Biosignal
# Outline: as §1
# Human κ-Opioid (KOP) = target: T11, Human κ-Opioid (KOP) (Homo sapiens, UniProt P41145); test: Radioligand binding, human κ-opioid (KOP) membranes, filtration, [3H]-Diprenorphine; details: compound at 10 μM; for A2 radioligand binding inhibition: human κ-opioid (KOP) membranes
# T11 construct: purchased Perkin Elmer Biosignal
# Outline: as §2
# T4 sequence (P25103 whole entry): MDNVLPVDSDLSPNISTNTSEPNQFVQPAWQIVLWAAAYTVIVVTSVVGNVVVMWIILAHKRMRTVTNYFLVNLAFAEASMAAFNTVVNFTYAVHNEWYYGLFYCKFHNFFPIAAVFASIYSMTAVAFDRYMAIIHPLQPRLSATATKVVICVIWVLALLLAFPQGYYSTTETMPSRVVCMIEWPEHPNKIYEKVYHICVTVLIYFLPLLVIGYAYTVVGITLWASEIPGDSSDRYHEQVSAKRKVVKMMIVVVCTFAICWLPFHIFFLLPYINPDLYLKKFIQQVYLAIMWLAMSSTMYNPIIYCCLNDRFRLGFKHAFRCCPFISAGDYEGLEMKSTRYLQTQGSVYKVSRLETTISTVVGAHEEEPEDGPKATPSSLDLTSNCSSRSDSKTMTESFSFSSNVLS
# T6 sequence (P35372 whole entry): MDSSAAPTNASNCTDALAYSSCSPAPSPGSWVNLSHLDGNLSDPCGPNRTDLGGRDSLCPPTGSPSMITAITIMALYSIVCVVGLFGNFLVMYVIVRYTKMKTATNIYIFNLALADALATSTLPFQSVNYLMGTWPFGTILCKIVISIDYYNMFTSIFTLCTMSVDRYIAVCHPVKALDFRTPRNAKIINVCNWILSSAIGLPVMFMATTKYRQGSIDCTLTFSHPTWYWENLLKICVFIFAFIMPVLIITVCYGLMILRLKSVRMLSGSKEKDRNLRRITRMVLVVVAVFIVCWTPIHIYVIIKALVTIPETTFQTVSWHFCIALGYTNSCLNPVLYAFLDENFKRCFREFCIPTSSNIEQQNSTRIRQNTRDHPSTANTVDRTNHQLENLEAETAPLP
# T8 sequence (P33032 whole entry): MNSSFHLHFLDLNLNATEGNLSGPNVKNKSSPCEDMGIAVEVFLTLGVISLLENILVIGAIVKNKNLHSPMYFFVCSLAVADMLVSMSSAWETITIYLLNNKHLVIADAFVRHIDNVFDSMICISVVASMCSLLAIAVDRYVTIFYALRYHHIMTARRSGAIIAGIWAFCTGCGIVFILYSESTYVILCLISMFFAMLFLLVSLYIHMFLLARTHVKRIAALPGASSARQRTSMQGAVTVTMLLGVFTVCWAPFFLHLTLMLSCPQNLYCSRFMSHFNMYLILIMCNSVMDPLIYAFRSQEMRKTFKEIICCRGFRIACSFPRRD
# T5 sequence (P32245 whole entry): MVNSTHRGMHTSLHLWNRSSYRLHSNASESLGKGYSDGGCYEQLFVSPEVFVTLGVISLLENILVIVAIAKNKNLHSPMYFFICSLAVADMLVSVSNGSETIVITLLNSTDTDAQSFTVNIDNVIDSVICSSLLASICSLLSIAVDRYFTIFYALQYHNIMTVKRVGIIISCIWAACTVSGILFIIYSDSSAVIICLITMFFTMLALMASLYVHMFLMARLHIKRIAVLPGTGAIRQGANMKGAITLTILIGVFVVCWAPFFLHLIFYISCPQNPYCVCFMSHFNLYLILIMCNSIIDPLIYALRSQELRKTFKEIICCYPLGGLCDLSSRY
# T3 sequence (P41968 whole entry): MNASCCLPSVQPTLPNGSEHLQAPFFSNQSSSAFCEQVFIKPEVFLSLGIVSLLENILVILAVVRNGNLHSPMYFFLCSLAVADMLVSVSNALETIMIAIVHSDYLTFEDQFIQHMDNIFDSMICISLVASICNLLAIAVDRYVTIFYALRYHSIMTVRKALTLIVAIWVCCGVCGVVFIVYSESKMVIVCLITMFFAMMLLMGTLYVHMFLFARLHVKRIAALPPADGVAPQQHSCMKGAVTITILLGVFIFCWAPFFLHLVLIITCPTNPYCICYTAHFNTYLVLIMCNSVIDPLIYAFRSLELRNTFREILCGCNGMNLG
# T11 sequence (P41145 whole entry): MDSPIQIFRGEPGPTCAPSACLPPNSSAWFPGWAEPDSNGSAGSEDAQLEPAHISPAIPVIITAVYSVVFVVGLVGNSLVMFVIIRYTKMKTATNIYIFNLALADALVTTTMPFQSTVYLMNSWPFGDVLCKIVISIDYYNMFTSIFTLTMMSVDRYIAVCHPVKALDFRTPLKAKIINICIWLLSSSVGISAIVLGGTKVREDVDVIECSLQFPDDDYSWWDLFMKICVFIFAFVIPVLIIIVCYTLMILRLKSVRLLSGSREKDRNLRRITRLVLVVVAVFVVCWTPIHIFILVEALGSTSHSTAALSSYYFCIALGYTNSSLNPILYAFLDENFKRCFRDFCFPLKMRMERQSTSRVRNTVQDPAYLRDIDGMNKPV
# T10 sequence (P41146 whole entry): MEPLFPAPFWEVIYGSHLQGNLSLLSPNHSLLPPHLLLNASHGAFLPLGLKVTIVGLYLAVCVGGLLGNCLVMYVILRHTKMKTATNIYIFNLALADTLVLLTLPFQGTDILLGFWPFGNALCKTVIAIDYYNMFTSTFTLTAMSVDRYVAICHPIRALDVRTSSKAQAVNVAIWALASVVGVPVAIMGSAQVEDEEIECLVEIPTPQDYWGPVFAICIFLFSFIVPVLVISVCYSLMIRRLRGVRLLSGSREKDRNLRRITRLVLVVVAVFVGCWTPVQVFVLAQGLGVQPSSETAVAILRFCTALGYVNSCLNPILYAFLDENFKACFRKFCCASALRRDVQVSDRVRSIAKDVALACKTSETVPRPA
# T2 sequence (P41143 whole entry): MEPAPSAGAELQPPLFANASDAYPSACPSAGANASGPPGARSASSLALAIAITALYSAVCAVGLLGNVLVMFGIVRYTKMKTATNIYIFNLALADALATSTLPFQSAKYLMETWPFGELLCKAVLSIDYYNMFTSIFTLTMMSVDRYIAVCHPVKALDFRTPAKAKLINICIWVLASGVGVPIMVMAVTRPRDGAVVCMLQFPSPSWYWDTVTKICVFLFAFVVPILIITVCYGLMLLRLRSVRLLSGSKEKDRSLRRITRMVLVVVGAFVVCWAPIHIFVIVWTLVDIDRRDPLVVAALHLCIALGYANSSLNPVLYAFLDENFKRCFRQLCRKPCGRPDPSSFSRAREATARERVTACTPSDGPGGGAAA
# T9 sequence (Q99705 whole entry): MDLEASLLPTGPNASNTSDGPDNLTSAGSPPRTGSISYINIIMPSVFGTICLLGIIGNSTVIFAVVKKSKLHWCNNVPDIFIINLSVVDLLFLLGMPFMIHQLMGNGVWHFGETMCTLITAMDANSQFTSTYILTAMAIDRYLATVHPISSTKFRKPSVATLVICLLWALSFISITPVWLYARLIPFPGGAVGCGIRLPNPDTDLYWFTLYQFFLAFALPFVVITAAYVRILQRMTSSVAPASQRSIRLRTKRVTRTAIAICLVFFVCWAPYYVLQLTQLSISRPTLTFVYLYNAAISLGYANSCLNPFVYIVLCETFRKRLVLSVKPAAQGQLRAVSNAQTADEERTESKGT
structure (smiles),measurement,setting,value
CO[C@H]1[C@H](O)[C@@H](COCc2ccc(-c3ccccc3)cc2)OC(OCc2cccc(O)c2)[C@@H]1NC(=O)CCCN (stereo partly shown) [compound 164],"A9 radioligand binding, percentage inhibition",[1]; [125I]-PYY,− (“−” indicates less than 50% inhibition at 10 μM)
same,"A1 radioligand binding, percentage inhibition",Human δ-opioid (DOP); [3H]-Bremazocine,− (“−” indicates less than 50% inhibition at 10 μM)
same,"A3 radioligand binding, percentage inhibition",Human Melanocortin (MC3); [125I]-NDP-αMSH,− (“−” indicates less than 50% inhibition at 10 μM)
same,"A8 radioligand binding, percentage inhibition",Human neurokinin (NK1); [125I]-Substance P,+ (“+” indicates greater than 50% inhibition at 10 μM)
same,"A4 radioligand binding, percentage inhibition",Human Melanocortin (MC4); [125I]-NDP-αMSH,+ (“+” indicates greater than 50% inhibition at 10 μM)
same,"A7 radioligand binding, percentage inhibition",Human μ-opioid (MOP); [3H]-Naloxone,− (“−” indicates less than 50% inhibition at 10 μM)
same,"A11 radioligand binding, percentage inhibition",Mouse urotensin (mUR2); [125I]-Urotensin II,− (“−” indicates less than 50% inhibition at 10 μM)
same,"A5 radioligand binding, percentage inhibition",Human melanocortin (MC5); [125I]-NDP-αMSH,− (“−” indicates less than 50% inhibition at 10 μM)
same,"A6 radioligand binding, percentage inhibition",[2]; [125I]-S36057,− (“−” indicates less than 50% inhibition at 10 μM)
same,"A10 radioligand binding, percentage inhibition",Human opioid (ORL1); [125I]-Nociceptin,− (“−” indicates less than 50% inhibition at 10 μM)
same,"A2 radioligand binding, percentage inhibition",Human κ-Opioid (KOP); [3H]-Diprenorphine,− (“−” indicates less than 50% inhibition at 10 μM)
CO[C@H]1[C@H](O)[C@@H](COCc2ccccc2)OC(OCc2ccc3ccccc3c2)[C@@H]1NC(=O)CCCN (stereo partly shown) [compound 76],A9 radioligand binding inhibition,[1]; human NPY-Y1 membranes,− (“−” indicates less than 50% inhibition at 10 μM)
same,A1 radioligand binding inhibition,Human δ-opioid (DOP),− (“−” indicates less than 50% inhibition at 10 μM)
same,A3 radioligand binding inhibition,Human Melanocortin (MC3),− (“−” indicates less than 50% inhibition at 10 μM)
same,A8 radioligand binding inhibition,Human neurokinin (NK1),+ (“+” indicates greater than 50% inhibition at 10 μM)
same,A4 radioligand binding inhibition,Human Melanocortin (MC4),− (“−” indicates less than 50% inhibition at 10 μM)
same,A7 radioligand binding inhibition,Human μ-opioid (MOP),− (“−” indicates less than 50% inhibition at 10 μM)
same,A11 radioligand binding inhibition,Mouse urotensin (mUR2),− (“−” indicates less than 50% inhibition at 10 μM)
same,A5 radioligand binding inhibition,Human melanocortin (MC5),− (“−” indicates less than 50% inhibition at 10 μM)
same,A6 radioligand binding inhibition,[2],− (“−” indicates less than 50% inhibition at 10 μM)
same,A10 radioligand binding inhibition,Human opioid (ORL1); human ORL1 membranes,− (“−” indicates less than 50% inhibition at 10 μM)
same,A2 radioligand binding inhibition,Human κ-Opioid (KOP),− (“−” indicates less than 50% inhibition at 10 μM)
N=C(N)NCC(=O)NC1C(OCc2ccc(-c3ccccc3)cc2)OC(COCc2ccc3ccccc3c2)C(O)C1OCc1ccc(Cl)cc1 (stereo not shown) [compound 399],A9: inhibition of radioligand binding,"[1]; [125I]-PYY, human NPY-Y1 membranes",− (“−” indicates less than 50% inhibition at 10 μM)
same,A1: inhibition of radioligand binding,"Human δ-opioid (DOP); [3H]-Bremazocine, human DOP membranes",− (“−” indicates less than 50% inhibition at 10 μM)
same,A3: inhibition of radioligand binding,"Human Melanocortin (MC3); [125I]-NDP-αMSH, human MC3 membranes",+ (“+” indicates greater than 50% inhibition at 10 μM)
same,A8: inhibition of radioligand binding,"Human neurokinin (NK1); [125I]-Substance P, human NK1 membranes",+ (“+” indicates greater than 50% inhibition at 10 μM)
same,A4: inhibition of radioligand binding,"Human Melanocortin (MC4); [125I]-NDP-αMSH, human MC4 membranes",+ (“+” indicates greater than 50% inhibition at 10 μM)
same,A7: inhibition of radioligand binding,"Human μ-opioid (MOP); [3H]-Naloxone, human MOP membranes",− (“−” indicates less than 50% inhibition at 10 μM)
same,A11: inhibition of radioligand binding,"Mouse urotensin (mUR2); [125I]-Urotensin II, mouse mUR2 membranes",− (“−” indicates less than 50% inhibition at 10 μM)
same,A5: inhibition of radioligand binding,"Human melanocortin (MC5); [125I]-NDP-αMSH, human MC5 membranes",+ (“+” indicates greater than 50% inhibition at 10 μM)
same,A6: inhibition of radioligand binding,"[2]; [125I]-S36057, human MCH1 membranes",− (“−” indicates less than 50% inhibition at 10 μM)
same,A10: inhibition of radioligand binding,"Human opioid (ORL1); [125I]-Nociceptin, human ORL1 membranes",− (“−” indicates less than 50% inhibition at 10 μM)
same,A2: inhibition of radioligand binding,"Human κ-Opioid (KOP); [3H]-Diprenorphine, human KOP membranes",− (“−” indicates less than 50% inhibition at 10 μM)
CO[C@H]1[C@H](O)[C@@H](COCc2ccc3ccccc3c2)OC(OCc2ccc(-c3ccccc3)cc2)[C@@H]1NC(=O)CCNC(=N)N (stereo partly shown) [compound 56],A9 radioligand binding inhibition,[1]; human NPY-Y1 membranes,− (“−” indicates less than 50% inhibition at 10 μM)
same,A1 radioligand binding inhibition,Human δ-opioid (DOP),− (“−” indicates less than 50% inhibition at 10 μM)
same,A3 radioligand binding inhibition,Human Melanocortin (MC3),− (“−” indicates less than 50% inhibition at 10 μM)
same,A8 radioligand binding inhibition,Human neurokinin (NK1),+ (“+” indicates greater than 50% inhibition at 10 μM)
same,A4 radioligand binding inhibition,Human Melanocortin (MC4),− (“−” indicates less than 50% inhibition at 10 μM)
same,A7 radioligand binding inhibition,Human μ-opioid (MOP),+ (“+” indicates greater than 50% inhibition at 10 μM)
same,A11 radioligand binding inhibition,Mouse urotensin (mUR2),− (“−” indicates less than 50% inhibition at 10 μM)
same,A5 radioligand binding inhibition,Human melanocortin (MC5),+ (“+” indicates greater than 50% inhibition at 10 μM)
same,A6 radioligand binding inhibition,[2],− (“−” indicates less than 50% inhibition at 10 μM)
same,A10 radioligand binding inhibition,Human opioid (ORL1); human ORL1 membranes,− (“−” indicates less than 50% inhibition at 10 μM)
same,A2 radioligand binding inhibition,Human κ-Opioid (KOP),− (“−” indicates less than 50% inhibition at 10 μM)
N=C(N)NCCC(=O)N[C@H]1C(OCc2ccc(Cl)cc2)O[C@H](COCc2ccc(Cl)cc2)[C@@H](O)[C@@H]1OCc1ccc(Cl)cc1 (stereo partly shown) [compound 526],"A9: inhibition of radioligand binding, human neuropeptide Y (NPY-Y1)",[1]; [125I]-PYY,− (“−” indicates less than 50% inhibition at 10 μM)
same,"A1: inhibition of radioligand binding, human δ-opioid (DOP)",Human δ-opioid (DOP); [3H]-Bremazocine,− (“−” indicates less than 50% inhibition at 10 μM)
same,"A3: inhibition of radioligand binding, human melanocortin (MC3)","Human Melanocortin (MC3); [125I]-NDP-αMSH, 10 µM",− (“−” indicates less than 50% inhibition at 10 μM)
same,"A8: inhibition of radioligand binding, human neurokinin (NK1)",Human neurokinin (NK1); [125I]-Substance P,+ (“+” indicates greater than 50% inhibition at 10 μM)
same,"A4: inhibition of radioligand binding, human melanocortin (MC4)","Human Melanocortin (MC4); [125I]-NDP-αMSH, 10 µM",− (“−” indicates less than 50% inhibition at 10 μM)
same,"A7: inhibition of radioligand binding, human μ-opioid (MOP)",Human μ-opioid (MOP); [3H]-Naloxone,− (“−” indicates less than 50% inhibition at 10 μM)
same,"A11: inhibition of radioligand binding, mouse urotensin (mUR2)",Mouse urotensin (mUR2); [125I]-Urotensin II,− (“−” indicates less than 50% inhibition at 10 μM)
same,"A5: inhibition of radioligand binding, human melanocortin (MC5)",Human melanocortin (MC5); [125I]-NDP-αMSH,+ (“+” indicates greater than 50% inhibition at 10 μM)
same,"A6: inhibition of radioligand binding, human melanin-concentrating hormone (MCH1)",[2]; [125I]-S36057,+ (“+” indicates greater than 50% inhibition at 10 μM)
same,"A10: inhibition of radioligand binding, human opioid (ORL1)",Human opioid (ORL1); [125I]-Nociceptin,− (“−” indicates less than 50% inhibition at 10 μM)
same,"A2: inhibition of radioligand binding, human κ-opioid (KOP)","Human κ-Opioid (KOP); [3H]-Diprenorphine, 10 µM",− (“−” indicates less than 50% inhibition at 10 μM)
